# Reference: US12263248B2, “Compounds and compositions for intracellular delivery of therapeutic agents” (ModernaTX, Inc., priority 2018, dated 2025)
# Columns and labels:
# [1] = test system: luciferase (Luc) mRNA; experiment: Luc expression (total flux) after intramuscular administration; assay type: in vivo, mice; conditions: for Total flux, 0.001 mpk Dose / Total flux, 0.01 mpk Dose: Luc mRNA and H10 mRNA; for AUC (p/s * h) / Lipid/MC3 AUC: Table 3H, Luc; for AUC (p/s * h) / Lipid/MC3 AUC / Novel lipid/MC3 expression ratio, 6 hr. time point, i.m. Luc: intramuscular; for Novel lipid/MC3 expression ratio, 6 hr. time point, i.m. Luc: relative to MC3 formulation
# Outline: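 Mice given a single intramuscular dose of lipid nanoparticle formulations carrying modified Luc mRNA, alone or with H10 mRNA, at 0.001 or 0.01 mpk total. Luciferase expression recorded as total flux.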
# [2] = test system: luciferase (Luc) mRNA; experiment: Luc expression, whole body bioluminescence after intravenous administration to mice; assay type: in vivo; conditions: for Fold increase in total body Luc Flux relative to MC3 at 6 h: Table 3A; for flux measured at 6 h relative to the MC3 formulation: in words; for Total Flux 3 hours / Total Flux 6 hours / Total Flux 24 hours: Luc mRNA; for Novel lipid/MC3 expression ratio, 6 hr. time point, i.v. / Novel lipid/MC3 ratio, 6 hr. timepoint, i.v.: luciferase, intravenous; for Novel lipid/MC3 expression ratio, 6 hr. time point, i.v.: relative to MC3 formulation; for Novel lipid/MC3 ratio, 6 hr. timepoint, i.v.: relative to MC3, Table 3G
# Outline: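 Luc mRNA nanoparticle formulations given intravenously to mice (n=6) at 0.5 mg/kg; whole-body bioluminescence imaged at 3, 6 and 24 h. CD-1 mice received IP D-luciferin (200 μL of 15 mg/mL) 15 min before imaging; total flux quantified by region of interest.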
# [3] = Particle size and polydispersity index of nanoparticle compositions (Zetasizer Nano ZS); assay type: physicochemical
# Outline: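 Particle size and PDI were measured on a Zetasizer Nano ZS with the nanoparticle compositions dispersed in 1×PBS.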
# [4] = test system: luciferase (Luc) mRNA; experiment: Luc expression in liver, lung, spleen and femur 6 hours after intravenous administration; assay type: in vivo; conditions: mice, 0.5 mpk; for Total Flux Liver / Total Flux Lung / Total Flux Spleen: intravenous
# Outline: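 LNP-formulated mRNA given IV to mice (n=3) at 0.5 mpk; at 6 h, bioluminescence imaged ex vivo 15 min after IP D-luciferin (15 mg/mL, 200 μL), organs imaged within 25 min. Values are total flux by region of interest.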
# [5] = 6 hours after intramuscular administration
# [6] = 6 hours after intramuscular administration, 0.01 mpk
# [7] = Table 1A, lipid:DSPC:cholesterol:PEG-DMG 50:10:38.5:1.5 mol %
# [8] = Table 1D, for subcutaneous administration, # formulated with hEPO mRNA
# [9] = Table 1B, formulated with hEPO mRNA
# [10] = Table 1E, compositions for subcutaneous administration
# [11] = Table 1C, compositions for subcutaneous administration
SMILES,Fold increase in total body Luc Flux relative to MC3 at 6 h ([2]; i.v. administration),flux measured at 6 h relative to the MC3 formulation ([2]; i.v. administration),"Total Flux 3 hours ([2]; mice, i.v., 0.5 mg/kg)","Total Flux 6 hours ([2]; mice, i.v., 0.5 mg/kg)","Total Flux 24 hours ([2]; mice, i.v., 0.5 mg/kg)",PDI ([3]; Table 1A),"Size (nm) [3, 7]","PDI [3, 8]","Size (nm) [3, 8]",Total Flux Liver [4],Total Flux Lung [4],Total Flux Spleen [4],AUC (p/s * h) [1],Lipid/MC3 AUC [1],"Novel lipid/MC3 expression ratio, 6 hr. time point, i.m. Luc [1]","Novel lipid/MC3 expression ratio, 6 hr. time point, i.v. [2]",also measured
"CCCCCCCCC(C)OC(=O)CCCCCCCN(CCO)CCCCCCCC(=O)OC(CCCCCCCC)CCCCCCCC (centres unmarked) [Compound 48, decan-2-yl 8-((8-(heptadecan-9-yloxy)-8-oxooctyl)(2-hydroxyethyl)amino)octanoate]",10.0,ten times higher,8.73E+10,1.10E+11,2.92E+09,0.092,82.3 nm,0.09,79.8 nm,1.08E+10,3.31E+07,3.49E+08,,,,,"Total flux, 0.001 mpk Dose [1, 5]: 4.69E+05 p/s; Total flux, 0.01 mpk Dose [1, 6]: 8.78E+06 p/s; Lipid/MC3 Luc expression ([2]; 0.5 mpk dose to mouse, 6 hours after administration): 10.0; total flux at 3 hours ([2]; mice, i.v., 0.5 mg/kg, comparison in words): highest; PDI ([3]; nanoparticle composition with hEPO mRNA (Table 30)): 0.176; Size ([3]; nanoparticle composition with hEPO mRNA, standard MC3 formulation (Table 30)): 70.6 nm; Flux in the liver ([4]; i.v., in words): highest; Flux in the spleen ([4]; i.v., in words): highest"
"CCCCCCCCC(CC)OC(=O)CCCCCCCN(CCO)CCCCCCCC(=O)OC(CCCCCCCC)CCCCCCCC (centres unmarked) [Compound 49, heptadecan-9-yl 8-((2-hydroxyethyl)(8-oxo-8-(undecan-3-yloxy)octyl)amino)octanoate]",9.81,ten times higher,4.48E+10,1.08E+11,1.24E+09,0.14,88 nm,0.09,74.0 nm,5.68E+09,2.52E+07,1.87E+08,7.54E+09 p/s * h,12.82,12.99,9.81,
"CCCCCCCCC(CCC)OC(=O)CCCCCCCN(CCO)CCCCCCCC(=O)OC(CCCCCCCC)CCCCCCCC (centres unmarked) [Compound 50, dodecan-4-yl 8-((8-(heptadecan-9-yloxy)-8-oxooctyl)(2-hydroxyethyl)amino)octanoate]",6.81,higher flux than MC3 formulations,3.81E+10,7.49E+10,5.02E+08,0.100,68.4 nm,,,6.30E+09,2.81E+07,1.14E+08,,,,,"Total flux, 0.001 mpk Dose [1, 5]: 6.56E+05 p/s; Total flux, 0.01 mpk Dose [1, 6]: 1.13E+07 p/s"
"CCCC/C=C\CCC(CC/C=C\CCCC)OC(=O)CCCCCCCN(CCO)CCCCCCCC(=O)OCCCCCCCCC [Compound 60, (5Z,12Z)-Heptadeca-5,12-dien-9-yl 8-((2-hydroxyethyl)(8-(nonyloxy)-8-oxooctyl)amino)octanoate]",,,7.91E+10,9.04E+10,2.90E+09,0.12,95.1 nm,0.13,87.4 nm,1.54E+09,6.25E+06,7.12E+06,,,2.93,3.37,"Total flux (p/s) 0.01 mpk Dose ([1]; Table 5B, 6 hours after intramuscular administration, 0.01 mpk): 9.48E+07 p/s; PDI [3, 9]: 0.15; Size (nm) [3, 9]: 88.9 nm; PDI [3, 10]: 0.12; Size (nm) [3, 10]: 93.3 nm"
"CCCC/C=C\CCC(CC/C=C\CCCC)OC(=O)CCCCCCCN(CCO)CCCCCC(=O)OCCCCCCCCCCC [Compound 61, (5Z,12Z)-heptadeca-5,12-dien-9-yl 8-((2-hydroxyethyl)(6-oxo-6-(undecyloxy)hexyl)amino)octanoate]",,,6.54E+10,6.20E+10,1.78E+09,0.15,82.1 nm,,,6.37E+08,3.56E+06,1.61E+07,2.30E+09 p/s * h,3.91,3.51,2.31,"PDI [3, 10]: 0.08; Size (nm) [3, 10]: 80.0 nm"
"CCCCCCCCC(CC)OC(=O)CCCN(CCO)CCCCCCCC(=O)OC(CCCCCCCC)CCCCCCCC (centres unmarked) [Compound 72, Heptadecan-9-yl 8-((2-hydroxyethyl)(4-oxo-4-(undecan-3-yloxy)butyl)amino)octanoate]",,,1.73E+10,4.07E+10,7.12E+08,0.10,76.8 nm,,,7.97E+08,1.05E+07,6.40E+06,6.48E+08 p/s * h,1.10,1.03,1.52,"Novel lipid/MC3 ratio, 6 hr. timepoint, i.v. [2]: 1.52; PDI [3, 11]: 0.10; Size (nm) [3, 11]: 77.3 nm"
"CCCCCCCCC(CC)OC(=O)CCCCCN(CCO)CCCCCCCC(=O)OC(CCCCCCCC)CCCCCCCC (centres unmarked) [Compound 75, Heptadecan-9-yl 8-((2-hydroxyethyl)(6-oxo-6-(undecan-3-yloxy)hexyl)amino)octanoate]",,,3.51E+10,8.80E+10,2.13E+09,0.17,92.1 nm,,,1.45E+09,3.92E+06,5.66E+06,1.29E+09 p/s * h,2.20,1.22,3.29,"Novel lipid/MC3 ratio, 6 hr. timepoint, i.v. [2]: 3.29; PDI [3, 11]: 0.13; Size (nm) [3, 11]: 88.6 nm"
"CCCCCCCCCOC(=O)CCCCCCCN(CCO)CCCCCCCCCC(=O)OC(CCCCCC)CCCCCC [Compound 147, Tridecan-7-yl 10-((2-hydroxyethyl)(8-(nonyloxy)-8-oxooctyl)amino)decanoate]",,,3.24E+10,4.87E+10,3.32E+08,0.130,99.5 nm,,,5.24E+09,6.73E+06,8.57E+07,,,,,"6 h Lipid/MC3 Avg. Luc Expression ([2]; Table 3C, i.v. administration): 6.68; Fold increase AUC Lipid/MC3 ([2]; Table 3C, i.v. administration): 6.83; AUC (h * p/s) ([2]; Table 3C, i.v. administration, Luc): 5.63E+11 h * p/s; PDI [3, 9]: 0.22; Size (nm) [3, 9]: 111.9 nm"
